Entries after “also recorded” stand apart in the source; their conditions may differ.
Tests used:
[1] = tested on: HeLa cells; experiment: Cell cycle analysis (PI, flow cytometry); type: cell-based, human; settings: 50 nM, 24 h
Method: HeLa cells were seeded at 100,000 cells per well on 6-well tissue culture plates. After 24 h, cells were treated with different test compound concentrations or DMSO for another 24 h. Cells were then fixed and stained with propidium iodide (PI). The fluorescence intensity of 10,000 single-cell events was measured with a Beckman Coulter Cytomics FC500 instrument (Beckman Coulter Italia, Milano, Italy) and the data were analyzed with MultiCycle for Windows software from Phoenix Flow Systems (San Diego, CA, USA).

[2] = tested on: HeLa cells; experiment: Western blot of cellular protein expression; type: cell-based, human; settings: 24 h
Method: Following growth for various times in the presence of 8q, HeLa cells were harvested by centrifugation and washed twice in 0 °C PBS. Cells were lysed with 0.1% (v/v) Triton X-100 containing RNase A at 0 °C, and supernatants were obtained by centrifuging the lysed cells at 15,000× g for 10 min at 4 °C. The protein content of the solutions was measured, and 10 μg of protein from each sample was subjected to sodium dodecyl sulfate polyacrylamide gel electrophoresis. Proteins were transferred by electroblotting to a poly(vinylidene difluoride) Hybond-P membrane from GE Healthcare. Membranes were treated with 5% bovine serum albumin in PBS containing 0.1% Tween 20 overnight at 4 °C. The membranes were then exposed for 2 h at room temperature to primary antibodies directed against cyclin B cdc25c, cdc2 (Y15), BCL-2, cleaved poly (ADP-ribose) polymerase (PARP), MCL-1, XIAP and vinculin (all from Cell Signaling), and subsequently for 1 h to peroxidase-labeled secondary antibodies. The membranes were visualized using ECL select (GE Healthcare), and images were acquired using a Uvitec-Alliance imaging system. Densitometric analysis of Western blots was performed by ImageJ software and the results were normalized to β-actin and represented as fold change with respect to untreated controls.

[3] = tested on: Zebrafish embryos; experiment: Acute toxicity assessment in zebrafish embryos; type: in vivo, Danio rerio; settings: for Results (toxicity evaluation) / % Alterations 24 h / % Lethality 24 h / % Alterations 48 h / % Lethality 48 h: 72 hpf embryos
Method: Zebrafish embryos at 72 h post fertilization (hpf) were selected for the acute toxicity assay since, at that time, morphogenesis and function of the primary organ systems are complete. Embryos at 72 hpf were assayed in a 12-well plate, 20 larvae/well for each experimental condition.
The zebrafish embryos were treated as described in the Biological Results and Discussion section using drug concentrations selected on the basis of in vitro experimental data. The drugs were added directly to the fish water from 10 mM stock solutions in DMSO of tested compounds. […] CA-4P was employed as the reference compound.
The experiment was carried out at a constant temperature (28.5 °C) in the dark, and at 24 and 48 h time points, zebrafish were subjected to visual observation and image acquisition under a stereomicroscope (Nikon SMZ745T; Nikon, Japan). The number of dead zebrafish embryos for each condition was recorded, and morphological defects were evaluated. The survival rate (%) after treatment was calculated.

[4] = tested on: Bovine brain tubulin; experiment: Inhibition of [3H]colchicine binding to tubulin; settings: tubulin 0.5 µM, [3H]colchicine 5 µM, compound 5 µM
Method: Bovine brain tubulin was purified as described previously. To evaluate the effects of the compounds on tubulin assembly in vitro [35], varying concentrations were preincubated with 10 μM tubulin in 0.8 M monosodium glutamate (pH 6.6) at 30 °C and the reaction mixtures then cooled to 0 °C. After addition of GTP, the mixtures were transferred to 0 °C cuvettes in Beckman Coulter (Brea, CA, USA) DU-7400/DU-7500 recording spectrophotometers equipped with electronic temperature controllers and warmed to 30 °C, and the assembly of tubulin was observed turbidimetrically. […] Inhibition of colchicine binding to tubulin was measured as described before, except that the reaction mixtures contained 0.5 μM tubulin and 5 μM each of [^3H]colchicine and test compound. Only one DEAE-cellulose filter was used per sample, and filtration was by gravity.

In the case of `Cc1cc(Nc2ccc(F)cc2)n2nc(NCCCc3ccccc3)nc2n1` [Compound 8q], the “cells arrested in G2/M” value [1] is reported as 80%, the “BCL-2 and MCL-1 expression” value ([2]; 50 nM) is reported as “partial reduction in BCL-2 and MCL-1 expression” and the “caspase-3 activation and PARP cleavage” value ([2]; 50 nM) is reported as “appearance of the cleaved fragment of the executioner caspase-3 and the consequent cleavage of its substrate PARP”. For the same compound, the “ATR (Ser428) and CHK1 (S345) phosphorylation” value [2] was “appreciable increase in ATR phosphorylation (Ser428) and of its downstream target CHK1 (S345)”, the “cdc2 phosphorylation (Tyr15)” value [2] was “significant reduction in cdc2 phosphorylation (Tyr15)” and the “death, morphologic changes, developmental abnormalities” value ([3]; 100 nM and 1 μM, 24 and 48 h) was “no death and no morphologic changes or developmental abnormalities; also recorded: No abnormal phenotypes or developmental defects were seen”. For the same compound, the “Results (toxicity evaluation)” value ([3]; 100 nM) was “Not toxic”, the “% Alterations 24 h” value ([3]; 100 nM) was 0% and the “% Lethality 24 h” value ([3]; 100 nM) was 0%. The “% Alterations 48 h” value ([3]; 100 nM) was 0%, the “% Lethality 48 h” value ([3]; 100 nM) was 0% and the “Results (toxicity evaluation)” value ([3]; 1 μM) was “Not toxic”. The “% Alterations 24 h” value ([3]; 1 μM) was 0%, the “% Lethality 24 h” value ([3]; 1 μM) was 0% and the “% Alterations 48 h” value ([3]; 1 μM) was 0%. For the same compound, the “% Lethality 48 h” value ([3]; 1 μM) was 0% and the “Colchicine Binding % Inhibition ± SD” value [4] was 88 ± 0.8%.
